Patent publication US5496843A, “Tricyclic indole-2-carboxylic acid derivatives” (Sumitomo Pharmaceuticals Company, Limited, priority 1993, dated 1996)

Assays:
[1] = test system: strychnine-insensitive glycine modulatory site of NMDA (N-methyl D-aspartate) receptors; assay: [3H] glycine binding studies; details: 10 ng/mL test compound; 10 nM [3H] glycine; rat brain synaptic membrane preparation
Procedure: (§1) The activities of the compounds were measured by [^3 H] DCKA and [^3 H] glycine binding inhibition studies as illustrated below. [^3 H] glycine binding studies
(§2) A crude rat brain synaptic membrane preparation was washed three times by centrifugation at 50,000×g for 30 min with 50 mM tris acetate (pH 7.4). The pellets obtained were suspended in 0.23M sucrose solution and stored at -80° C. For binding studies, the frozen suspension was thawed, treated with 0.08% triton X-100 at 2° C. for 10 min, and washed twice by the centrifugation as mentioned above. The synaptic membrane thus prepared (ca. 150~200 μg of protein) was incubated with 10 nM [^3 H] glycine (1.11 TBq/mmol) and the test compound (10 ng/mL~0.1 ng/mL) at 2° C. for 10 min in 50 mM tris acetate (pH 7.4). The incubation was terminated by suction filtration using Whatman GF/B glass filter. The radioactivity bound to the membrane on the filter was measured by scintillation counting. Non-specific binding was calculated by the radioactivity measured under the incubations in the presence of 0.1 mM D-serine. The [3H] glycine binding was not inhibited by addition of 0.1 mM strychnine.

[2] = test system: strychnine-insensitive glycine modulatory site of NMDA (N-methyl D-aspartate) receptors; assay: [3H] DCKA binding studies; details: 10 ng/mL test compound; 10 nM [3H] DCKA; rat brain synaptic membrane preparation
Procedure: as §1
[^3 H] DCKA binding studies
as §2, with “100” for “150~200”, “(DCKA) (603 GBq/mmol)” for “glycine (1.11 TBq/mmol)”, “ng/mL~0.1ng/mL)” for “ng/mL~0.1 ng/mL)”, “glycine. […] DCKA binding.” for “D-serine. The [3H] glycine binding was not inhibited by addition of 0.1 mM strychnine.”

[3] = test system: NMDA-induced tonic seizures; assay: NMDA-induced seizure model; type: in vivo; details: 30 mg/kg, i.p., 30 min before NMDA (5 nmol) i.c.v.; mice
Procedure: The compounds of the present invention attenuated strongly NMDA-induced seizure under systemic administration in the following in vivo model. NMDA-induced seizure model Thirty min later following intraperitoneal administration of the test compound (0.3~30 mg/kg) into each of ten mice tested, NMDA (5 nmol) was administered intracerebroventricularly (i.c.v.).

## Cl.NCc1ccc(NC(=O)CC2CCc3cc(Cl)cc4[nH]c(C(=O)O)c2c34)c(CC(=O)O)c1 (stereo not drawn) [Example 5, 7-Chloro-3-[p-aminomethyl-o-(carboxymethyl)phenylcarbamoylmethyl]-1,3,4,5-tetrahydrobenz[cd]indole-2-carboxylic acid hydrochloride]
[1]
  inhibition of the [3H] glycine binding: 69%
[2]
  inhibition of the [3H] DCKA binding: 94%
[3]
  protection from tonic seizures: 90%
